# Test results reported in patent US20240207238A1, “INHIBITORS OF PROTEIN TYROSINE PHOSPHATASE, COMPOSITIONS, AND METHODS OF USE” (BRISTOL-MYERS SQUIBB COMPANY, priority 2022, published 2024).
# pEC50, pIC50: −log10 of the molar value. Read-outs that look alike come from different tables or passages of the source.
# Experiments:
# B16-F10 cells = experiment: Cell proliferation assay (CellTiter-Glo) in B16-F10 cells with IFN-gamma; format: cell-based; details: 10 ng/ml mouse IFN-gamma, read-out: Prolif. 5d B16 GI50
# PTPN2 [1] = target: T1, PTPN2 (Homo sapiens (Human), UniProt P17706); experiment: Phosphatase activity assay using DiFMUP as substrate; format: biochemical; details: 0.15 nM PTPN2, read-out: PTPN2 BChem DIFMUP IC50
# T1 sequence (P17706 whole entry): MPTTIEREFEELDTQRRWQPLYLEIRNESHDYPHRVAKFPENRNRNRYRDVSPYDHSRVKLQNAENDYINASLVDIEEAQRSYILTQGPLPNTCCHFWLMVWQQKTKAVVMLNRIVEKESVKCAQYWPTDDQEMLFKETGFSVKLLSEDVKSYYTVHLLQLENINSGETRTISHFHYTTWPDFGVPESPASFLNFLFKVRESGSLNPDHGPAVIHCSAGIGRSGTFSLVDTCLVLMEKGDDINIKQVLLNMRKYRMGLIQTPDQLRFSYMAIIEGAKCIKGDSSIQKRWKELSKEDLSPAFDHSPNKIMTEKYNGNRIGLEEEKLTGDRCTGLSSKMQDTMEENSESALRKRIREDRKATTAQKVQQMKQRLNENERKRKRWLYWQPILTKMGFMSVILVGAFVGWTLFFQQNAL
# Description: The PTPN2 biochemical assay was performed as follows, a 5× stock solution of human PTPN2 (SRP5075, MilliporeSigma, Burlington, MA) and a 1.25× stock solution of DiFMUP (D6567, ThermoFisher Scientific, Waltham, MA), were prepared in 1× reaction buffer consisting of 50 mM HEPES, pH 7.4, 1 mM EDTA, 150 mM NaCl, 0.2 mg/mL BSA, 100 U/mL catalase and 10 mM DTT. […] of the DiFMUP substrate solution, for a final concentration of […] DiFMUP substrate, was added to a Corning 3574 384-well, white, non-binding surface microtiter plate containing […] of serially diluted test compounds prepared in DMSO. The reactions were started with the addition of […] of the enzyme solution, for a final PTPN2 concentration of 0.15 nM, and monitored every 105 seconds for 60 minutes at MEX 360/2EM 460 in a BioTek Synergy HTX plate reader (Agilent Technologies, Santa Clara, CA) at room temperature. The initial linear portions of the progress curves were fit according to a linear equation to yield the slopes and converted to % inhibition based on a value of 100% activity for the no inhibitor treated control. IC50 values of each compound were obtained by fitting the % inhibition-compound concentration curves using Dotmatics software (Dotmatics, Bishops Stortford, Hertfordshire, England).
# (§1) For IC50 data, High DDT concentration and/or DiFMUP substrate assays were used; a skilled artisan may use either assay.
# [2] = tested on: phosphorylated STAT1 in B16-F10 cells; experiment: Phospho-STAT1 (Tyr701) HTRF assay in B16-F10 cells; format: cell-based; details: 100 ng/mL mouse IFN-gamma, 1 hour, read-out: pSTAT1 HTRF B16 EC50
# Description: B16-F10 cells (ATCC, Manassas, VA, #CRL-6475) were cultured in DMEM growth medium (ThermoFisher Scientific, Waltham, MA, #11995-040) supplemented with 10% heat-inactivated FBS (ThermoFisher Scientific, #16140-071) and 1% pen/strep (ThermoFisher Scientific, #15140-122). The cells were seeded into a white opaque 384-well tissue culture treated microplate (PerkinElmer, Waltham, MA, #6007688) at a density of 10,000 cells/well in 20 uL total volume and incubated overnight at 37 C and 5% CO2. 30 nL of compounds dissolved in DMSO were then transferred from a source plate into target wells with the Echo650 acoustic liquid handler (Beckman Coulter, Indianapolis, IN). Negative control wells received 30 nL of DMSO only (0.15% final concentration). Plates were returned to the incubator for 1 hour and then cells were treated with either 5 uL of growth medium or 5 uL of growth medium containing 500 ng/ml of recombinant mouse IFN-gamma protein (R&D Systems, Minneapolis, MN, #485-MI/CF, 100 ng/mL final concentration) using the Assist automated pipetting platform (INTEGRA Biosciences, Hudson, NH). Plates were incubated at 37 C for 1 hour and assayed for phosphorylated STAT1 protein levels with the phospho-STAT1 (Tyr701) HTRF kit (Cisbio, Bedford, MA, #63ADK026PEH) according to the manufacturer's instructions.
# PTPN2 [3] = target: T1, PTPN2; experiment: PTPN2 biochemical assay, high DTT (PhosphoSens); details: high DTT concentration assay; read-out: PTPN2 BChem HIGHDTT IC50
# Description: A PhosphoSens® kinase assay was performed as described by the vendor (AssayQuant Technologies, Marlborough, MA). Briefly, 1000× solutions of compounds were prepared in DMSO via serial dilution of the 10 mM DMSO stocks using 3-fold intervals in a 384-well reagent plate. 50 nL of the compound dilution series was then added to the corresponding wells of a 384-well assay plate. […] Finally, […] of 5×PTPN2 enzyme stock was added to each well of the assay plate for a final enzyme concentration of 150 pM. Reaction progress curves were collected by sampling fluorescence intensity at the excitation wavelength 360 nm (Quex360) and emission wavelength 480 nm (λem480) every 71 seconds for one hour using a Synergy H4 plate reader (BioTek Instruments/Agilent Technologies, Winooski, VT) at room temperature.
# as §1
Compound,GI50 (B16-F10 cells) [nM],pIC50 (PTPN2 [1]),pEC50 [2],pIC50 (PTPN2 [3]),GI50 (B16-F10 cells; 120 h) [nM]
"5-(4-(((4,6-dimethylpyridin-2-yl)amino)methyl)-6-fluoro-1H-indazol-7-yl)-1,2,5-thiadiazolidin-3-one 1,1-dioxide [Example 6]",3260,7.08,5.43,–,–
"5-(6-fluoro-4-(((4-methoxy-5-methylpyridin-2-yl)amino)methyl)-1H-indazol-7-yl)-1,2,5-thiadiazolidin-3-one 1,1-dioxide [Example 7]",> 15000,6.70,< 4.82,–,–
"5-(6-fluoro-4-(((5-methoxypyridin-2-yl)amino)methyl)-1H-indazol-7-yl)-1,2,5-thiadiazolidin-3-one 1,1-dioxide [Example 2]",880,7.62,5.73,7.38,–
"5-[6-fluoro-4-[[(3-methyl-2-pyridyl) amino] methyl]-1H-indazol-7-yl]-1,1-dioxo-1,2,5-thiadiazolidin-3-one [Example 10]",3970,7.80,4.85,–,–
"5-[6-fluoro-4-[[(4-methoxy-2-pyridyl)amino]methyl]-1H-indazol-7-yl]-1,1-dioxo-1,2,5-thiadiazolidin-3-one [Example 3]",350,8.05,6.12,8.22,–
"5-[6-fluoro-4-[[(4-methyl-2-pyridyl)amino]methyl]-1H-indazol-7-yl]-1,1-dioxo-1,2,5-thiadiazolidin-3-one [Example 5]",166,8.10,6.36,8.30,–
"5-[6-fluoro-4-[[(6-methoxy-2-pyridyl)amino]methyl]-1H-indazol-7-yl]-1,1-dioxo-1,2,5-thiadiazolidin-3-one [Example 1]",160,8.70,6.54,8.30,–
"O=C1CN(c2c(F)cc(CNc3cc(C4CC4)ccn3)c3cn[nH]c23)S(=O)(=O)N1 [Example 4, 5-[4-[[(4-cyclopropyl-2-pyridyl)amino]methyl]-6-fluoro-1H-indazol-7-yl]-1,1-dioxo-1,2,5-thiadiazolidin-3-one]",–,8.70,5.51,9.00,2690
"Cc1cc(NCc2cc(F)c(N3CC(=O)NS3(=O)=O)c3[nH]ncc23)ncc1C#N [Example 8, 6-[[6-fluoro-7-(1,1,4-trioxo-1,2,5-thiadiazolidin-2-yl)-1H-indazol-4-yl]methylamino]-4-methyl-pyridine-3-carbonitrile]",–,7.17,5.04,–,> 15000
"COc1cc(C)nc(NCc2cc(F)c(N3CC(=O)NS3(=O)=O)c3[nH]ncc23)c1 [Example 9, 5-[6-fluoro-4-[[(4-methoxy-6-methyl-2-pyridyl)amino]methyl]-1H-indazol-7-yl]-1,1-dioxo-1,2,5-thiadiazolidin-3-one]",–,9.00,7.04,–,20
